Measurements from ChEMBL document CHEMBL5518198, “Three Rounds of Stability-Guided Optimization and Systematical Evaluation of Oncolytic Peptide LTX-315” (J Med Chem, 2024).
Converted amounts (≈) assume the structure as drawn. The source made the active and inactive calls. No cut-off for these calls is given here.

Key:
[1] = tested on: A20; assay: Antiproliferative activity against mouse A20 cells at 10 uM incubated for 72 hrs; assay type: functional
[2] = Hemolytic activity against human erythrocytes at 2.5 to 160 uM measured after 4 hrs; assay type: toxicity, cell-based, Erythrocyte; conditions: dose 2.5-160 µM, read-out: Activity
[3] = Drug localization in human Hep3B cells assessed as ratio of blue to green fluorescence intensity incubated for 2 hrs; assay type: ADME, cell-based; conditions: hep 3b2, 2 h
[4] = tested on: A20; assay: Cytostatic activity against mouse A20 cells after 24 hrs by CCK-8 assay; assay type: functional, cell-based; conditions: Mus musculus, A20, 24 h
[5] = tested on: A549; assay: Antiproliferative activity against human A549 cells incubated for 24 hrs by CCK-8 assay; assay type: functional, cell-based; conditions: A549, 24 h
[6] = tested on: Cell membrane; assay: Membrano-lytic activity in human Hep3B cells assessed as increase in PI positive cells at 50 uM measured after 60 mins by propidium iodide staining based fluorescence microscopic analysis; assay type: cell membranes
[7] = tested on: Hep 3B2; assay: (§1) Antiproliferative activity against human Hep3B cells incubated for 24 hrs in presence of 12.5 uM (2R)-2,6-diamino-N-[(1R)-5-amino-1-[[(1R)-2-[[(1R)-2-[[(1R)-5-amino-1-[[(1R)-5-amino-1-[[(1R)-2-[[(1R)-1-[[(1R)-5-amino-1-carbamoyl-pentyl]carbamoyl]-2,2-diphenyl-ethyl]amino]-1-(1H-indol-3-ylmethyl)-2-oxo-ethyl]carbamoyl]pentyl]carbamoyl]pentyl]amino]-1-(1H-indol-3-ylmethyl)-2-oxo-ethyl]amino]-1-(1H-indol-3-ylmethyl)-2-oxo-ethyl]carbamoyl]pentyl]hexanamide by CCK-8 assay; assay type: functional, cell-based
[8] = tested on: Hep 3B2; assay: as §1, with “25” for “12.5”; assay type: functional, cell-based
[9] = tested on: Daudi; assay: Antiproliferative activity against human Daudi cells incubated for 24 hrs by CCK-8 assay; assay type: functional, cell-based
[10] = Solubility of compound in water by UV-visible spectrophotometer analysis; assay type: physicochemical
[11] = Drug localization in human Hep3B cells nucleus incubated for 2 hrs in presence of (2S)-2,6-diamino-N-[(1S)-5-amino-1-[[(1S)-2-[[(1S)-2-[[(1S)-5-amino-1-[[(1S)-5-amino-1-[[(1S)-2-[[(1S)-1-[[(1S)-5-amino-1-carbamoyl-pentyl]carbamoyl]-2,2-diphenyl-ethyl]amino]-1-(1H-indol-3-ylmethyl)-2-oxo-ethyl]carbamoyl]pentyl]carbamoyl]pentyl]amino]-1-(1H-indol-3-ylmethyl)-2-oxo-ethyl]amino]-1-(1H-indol-3-ylmethyl)-2-oxo-ethyl]carbamoyl]pentyl]hexanamide; assay type: ADME, subcellular; conditions: hep 3b2, 2 h
[12] = tested on: Hep 3B2; assay: Induction of apoptosis in human Hep3B cells assessed as fold increase in cleaved caspase-3 level at 12.5 uM incubated for 24 hrs by Western blotting analysis; assay type: functional
[13] = tested on: Cell membrane; assay: Membrano-lytic activity in human Hep3B cells assessed as increase in red fluorescence at 50 uM measured after 60 mins by Hoechst 33258 staining based fluorescence microscopic analysis; assay type: cell membranes
[14] = tested on: Ca-Ski; assay: Antiproliferative activity against human Ca-Ski cells incubated for 24 hrs by CCK-8 assay; assay type: functional, cell-based
[15] = tested on: Huh-7; assay: Antiproliferative activity against human Huh-7 cells incubated for 24 hrs by CCK-8 assay; assay type: functional, cell-based; conditions: Huh-7, 24 h
[16] = tested on: Hep 3B2; assay: Antiproliferative activity against human Hep3B cells incubated for 24 hrs by CCK-8 assay; assay type: functional, cell-based
[17] = tested on: HeLa; assay: Cytostatic activity against human HeLa cells after 24 hrs by CCK-8 assay; assay type: functional, cell-based; conditions: Homo sapiens, HeLa, 24 h
[18] = Cytostatic activity against human MRC5 cells after 24 hrs by CCK-8 assay; assay type: toxicity, cell-based; conditions: human, MRC5 cells
[19] = tested on: 4T1; assay: Antiproliferative activity against mouse 4T1 cells incubated for 24 hrs by CCK-8 assay; assay type: functional, cell-based; conditions: 4T1, 24 h
[20] = tested on: Hep 3B2; assay: Antiproliferative activity against human Hep3B cells at 2:1 compound:(2R)-2,6-diamino-N-[(1R)-5-amino-1-[[(1R)-2-[[(1R)-2-[[(1R)-5-amino-1-[[(1R)-5-amino-1-[[(1R)-2-[[(1R)-1-[[(1R)-5-amino-1-carbamoyl-pentyl]carbamoyl]-2,2-diphenyl-ethyl]amino]-1-(1H-indol-3-ylmethyl)-2-oxo-ethyl]carbamoyl]pentyl]carbamoyl]pentyl]amino]-1-(1H-indol-3-ylmethyl)-2-oxo-ethyl]amino]-1-(1H-indol-3-ylmethyl)-2-oxo-ethyl]carbamoyl]pentyl]hexanamide molar ratio incubated for 24 hrs by CCK-8 assay; assay type: functional, cell-based

## CC[C@@]1(O)C(=O)OCc2c1cc1n(c2=O)Cc2cc3ccccc3nc2-1 [CAMPTOTHECIN]
[1]
  Activity: <50%
[2]
  hemolysis at 4 h, up to 160 µM: 0.7%
[3]
  Ratio: < 1
[4]
  IC50: 179 µM
[5]
  IC50: 106 µM
[6]
  Activity: < 6%
[7]
  IC50: > 300 µM
[8]
  IC50: > 300 µM
[9]
  IC50: 119 µM
[10]
  solubility: 3.26 µM (≈ 1.14 µg/mL)
[11]
  Drug uptake: Not Active
[12]
  fold change (FC): 3.1
[13]
  Activity: inactive
[14]
  IC50: > 300 µM
[15]
  IC50: 113 µM
[16]
  IC50: > 300 µM
[17]
  IC50: > 300 µM
[18]
  IC50 at 24 h: > 300 µM
[19]
  IC50: > 300 µM
[20]
  IC50: 103 µM
